From ChEMBL document CHEMBL1201862, “PubChem BioAssay data set” (2004)
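Exposure lasted 48 hours, with cells grown in 96-well plates and compounds tested at five concentrations. Here, GI50 denotes the concentration required for 50% inhibition of growth.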 The source made the active and inactive calls. No stated cut-off is given here; in the data, active = GI50 up to about 1.1 µM and inactive = higher.

Assays:
Assay in all cases: inhibition of tumour cell growth, NCI panel, 48 h
HCT-116 = tested on: HCT-116
SK-OV-3 = tested on: SK-OV-3
SF-539 = tested on: SF-539
COLO 205 = tested on: COLO 205
A549 = tested on: A549
TK-10 = tested on: TK-10
SK-MEL-5 = tested on: SK-MEL-5
A498 = tested on: A498
Malme-3M = tested on: Malme-3M
K562 = tested on: K562
IGROV-1 = tested on: IGROV-1
DMS-114 = tested on: DMS-114
HL-60 = tested on: HL-60
RPMI-8226 = tested on: RPMI-8226
OVCAR-5 = tested on: OVCAR-5
HOP-92 = tested on: HOP-92
NCI-H522 = tested on: NCI-H522
SW-620 = tested on: SW-620
SN12C = tested on: SN12C
SK-MEL-2 = tested on: SK-MEL-2
M14 = tested on: M14
XF498 = tested on: XF498
LOX IMVI = tested on: LOX IMVI
U-251 = tested on: U-251
SNB-19 = tested on: SNB-19
LXFL 529 = tested on: LXFL 529
DLD-1 = tested on: DLD-1
NCI-H23 = tested on: NCI-H23
HOP-18 = tested on: HOP-18
SNB-75 = tested on: SNB-75
HT-29 = tested on: HT-29
OVCAR-4 = tested on: OVCAR-4
SF-295 = tested on: SF-295
SF-268 = tested on: SF-268
HOP-62 = tested on: HOP-62
HCC 2998 = tested on: HCC 2998
HCT-15 = tested on: HCT-15
M19-MEL = tested on: M19-MEL
MOLT-4 = tested on: MOLT-4
NCI-H226 = tested on: NCI-H226
786-0 = tested on: 786-0
EKVX = tested on: EKVX
CAKI-1 = tested on: CAKI-1
KM12 = tested on: KM12
OVCAR-3 = tested on: OVCAR-3
CCRF-CEM = tested on: CCRF-CEM
DMS-273 = tested on: DMS-273
NCI-H460 = tested on: NCI-H460
OVCAR-8 = tested on: OVCAR-8
KM-20L2 = tested on: KM-20L2
UACC-62 = tested on: UACC-62
SK-MEL-28 = tested on: SK-MEL-28

CC(=O)c1ccc2c(ccc(=O)n2C)c1
GI50 (HCT-116): > 100 µM (inactive)
GI50 (SK-OV-3): > 100 µM (inactive)
GI50 (SF-539): > 100 µM (inactive)
GI50 (COLO 205): > 100 µM (inactive)
GI50 (A549): > 100 µM (inactive)
GI50 (TK-10): > 100 µM (inactive)
GI50 (SK-MEL-5): > 100 µM (inactive)
GI50 (A498): > 100 µM (inactive)
GI50 (Malme-3M): > 100 µM (inactive)
GI50 (K562): > 100 µM (inactive)
GI50 (IGROV-1): > 100 µM (inactive)
GI50 (DMS-114): > 100 µM (inactive)
GI50 (HL-60): > 100 µM (inactive)
GI50 (RPMI-8226): > 100 µM (inactive)
GI50 (OVCAR-5): > 100 µM (inactive)
GI50 (HOP-92): > 100 µM (inactive)
GI50 (NCI-H522): 56.2 µM (inactive)
GI50 (SW-620): > 100 µM (inactive)
GI50 (SN12C): > 100 µM (inactive)
GI50 (SK-MEL-2): > 100 µM (inactive)
GI50 (M14): > 100 µM (inactive)
GI50 (XF498): > 100 µM (inactive)
GI50 (LOX IMVI): > 100 µM (inactive)
GI50 (U-251): > 100 µM (inactive)
GI50 (SNB-19): > 100 µM (inactive)
GI50 (LXFL 529): > 100 µM (inactive)
GI50 (DLD-1): > 100 µM (inactive)
GI50 (NCI-H23): > 100 µM (inactive)
GI50 (HOP-18): > 100 µM (inactive)
GI50 (SNB-75): 38.7 µM (inactive)
GI50 (HT-29): > 100 µM (inactive)
GI50 (OVCAR-4): > 100 µM (inactive)
GI50 (SF-295): > 100 µM (inactive)
GI50 (SF-268): > 100 µM (inactive)
GI50 (HOP-62): > 100 µM (inactive)
GI50 (HCC 2998): > 100 µM (inactive)
GI50 (HCT-15): > 100 µM
GI50 (M19-MEL): > 100 µM (inactive)
GI50 (MOLT-4): > 100 µM (inactive)
GI50 (NCI-H226): > 100 µM (inactive)
GI50 (786-0): > 100 µM (inactive)
GI50 (EKVX): > 100 µM (inactive)
GI50 (CAKI-1): > 100 µM (inactive)
GI50 (KM12): > 100 µM (inactive)
GI50 (OVCAR-3): > 100 µM (inactive)
GI50 (CCRF-CEM): > 100 µM (inactive)
GI50 (DMS-273): > 100 µM (inactive)
GI50 (NCI-H460): > 100 µM (inactive)
GI50 (OVCAR-8): > 100 µM (inactive)
GI50 (KM-20L2): > 100 µM (inactive)
GI50 (UACC-62): 93.8 µM (inactive)
GI50 (SK-MEL-28): > 100 µM (inactive)
